Data: ChEMBL document CHEMBL5465560, “Selectivity Literature for EUbOPEN Chemogenomic Library” (2024)

Assays:
[1] = target: Tyrosine-protein kinase JAK2 (Homo sapiens, UniProt O60674); assay: Selectivity interaction (SelectScreen Kinase Profiling (Thermo Fisher Scientific)) EUB0001558a JAK2; conditions: at 1 µM
[2] = target: Mitogen-activated protein kinase 14 (Homo sapiens, UniProt Q16539); assay: Selectivity interaction (KinomeScan (DiscoverX)) EUB0000229b MAPK14; conditions: at 10 µM
[3] = target: Maternal embryonic leucine zipper kinase (Homo sapiens) (UniProt Q14680); assay: Selectivity interaction (KinomeScan (DiscoverX)) EUB0000092b MELK; conditions: at 10 µM
Maternal embryonic leucine zipper kinase (Homo sapiens), sequence (Q14680 whole entry, looked up): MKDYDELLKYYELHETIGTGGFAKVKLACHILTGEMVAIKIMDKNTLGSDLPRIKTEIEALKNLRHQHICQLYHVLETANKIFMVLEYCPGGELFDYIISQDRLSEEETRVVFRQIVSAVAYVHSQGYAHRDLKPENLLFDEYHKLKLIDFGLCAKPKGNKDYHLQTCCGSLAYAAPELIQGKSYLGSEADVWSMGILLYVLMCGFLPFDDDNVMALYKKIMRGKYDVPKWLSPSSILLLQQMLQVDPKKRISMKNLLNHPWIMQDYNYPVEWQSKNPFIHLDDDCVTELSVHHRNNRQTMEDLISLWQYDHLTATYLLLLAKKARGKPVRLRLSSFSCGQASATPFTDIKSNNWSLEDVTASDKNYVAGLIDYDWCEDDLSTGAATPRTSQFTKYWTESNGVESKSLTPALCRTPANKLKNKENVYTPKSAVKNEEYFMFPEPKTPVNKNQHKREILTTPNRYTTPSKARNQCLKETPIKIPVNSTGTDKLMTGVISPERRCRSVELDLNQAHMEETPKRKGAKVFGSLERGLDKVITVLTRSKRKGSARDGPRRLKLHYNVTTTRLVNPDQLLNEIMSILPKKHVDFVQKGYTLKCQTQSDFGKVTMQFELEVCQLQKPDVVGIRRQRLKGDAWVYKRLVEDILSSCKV

[4] = target: Receptor tyrosine-protein kinase erbB-4 (Homo sapiens, UniProt Q15303); assay: Selectivity interaction (KinomeScan (DiscoverX)) EUB0000655a ERBB4; conditions: at 10 µM
Receptor tyrosine-protein kinase erbB-4, sequence (Q15303 whole entry, the tested form may be a part): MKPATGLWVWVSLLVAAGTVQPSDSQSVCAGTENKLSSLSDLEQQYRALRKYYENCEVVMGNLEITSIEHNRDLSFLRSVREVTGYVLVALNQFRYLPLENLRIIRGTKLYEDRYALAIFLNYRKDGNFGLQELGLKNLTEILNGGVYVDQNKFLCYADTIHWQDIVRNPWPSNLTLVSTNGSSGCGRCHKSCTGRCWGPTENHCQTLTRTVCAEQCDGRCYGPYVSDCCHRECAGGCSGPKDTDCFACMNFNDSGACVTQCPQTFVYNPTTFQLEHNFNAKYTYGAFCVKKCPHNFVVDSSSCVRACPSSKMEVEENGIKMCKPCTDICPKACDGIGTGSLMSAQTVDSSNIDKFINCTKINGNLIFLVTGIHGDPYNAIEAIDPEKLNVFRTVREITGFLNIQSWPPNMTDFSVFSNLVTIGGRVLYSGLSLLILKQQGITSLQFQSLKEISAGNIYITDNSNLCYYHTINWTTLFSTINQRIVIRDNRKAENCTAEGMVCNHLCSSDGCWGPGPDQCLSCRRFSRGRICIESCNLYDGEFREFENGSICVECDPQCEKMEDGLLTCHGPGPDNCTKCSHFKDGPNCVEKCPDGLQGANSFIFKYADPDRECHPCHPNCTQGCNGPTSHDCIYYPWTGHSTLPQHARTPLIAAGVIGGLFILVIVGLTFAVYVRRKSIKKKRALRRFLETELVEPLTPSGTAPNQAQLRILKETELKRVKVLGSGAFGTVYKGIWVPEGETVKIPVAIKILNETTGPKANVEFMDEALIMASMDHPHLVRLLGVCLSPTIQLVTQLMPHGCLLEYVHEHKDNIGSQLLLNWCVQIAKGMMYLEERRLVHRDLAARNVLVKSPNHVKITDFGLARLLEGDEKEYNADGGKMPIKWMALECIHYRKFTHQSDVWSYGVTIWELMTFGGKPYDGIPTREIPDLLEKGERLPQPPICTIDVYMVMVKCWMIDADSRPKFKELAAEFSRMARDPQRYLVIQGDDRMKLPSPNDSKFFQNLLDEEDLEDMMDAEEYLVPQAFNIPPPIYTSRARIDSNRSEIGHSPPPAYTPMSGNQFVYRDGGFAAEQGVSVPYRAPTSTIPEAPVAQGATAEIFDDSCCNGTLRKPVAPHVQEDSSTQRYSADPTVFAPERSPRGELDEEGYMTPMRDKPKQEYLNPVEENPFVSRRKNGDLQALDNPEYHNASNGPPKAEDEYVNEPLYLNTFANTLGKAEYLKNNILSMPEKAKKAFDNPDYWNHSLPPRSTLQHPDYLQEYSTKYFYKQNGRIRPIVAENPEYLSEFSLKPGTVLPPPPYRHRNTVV

[5] = target: Epithelial discoidin domain-containing receptor 1 (Homo sapiens) (UniProt Q08345); assay: Selectivity interaction (KinomeScan (DiscoverX)) EUB0000655a DDR1; conditions: at 10 µM
Epithelial discoidin domain-containing receptor 1 (Homo sapiens), sequence (Q08345 whole entry, the tested form may be a part): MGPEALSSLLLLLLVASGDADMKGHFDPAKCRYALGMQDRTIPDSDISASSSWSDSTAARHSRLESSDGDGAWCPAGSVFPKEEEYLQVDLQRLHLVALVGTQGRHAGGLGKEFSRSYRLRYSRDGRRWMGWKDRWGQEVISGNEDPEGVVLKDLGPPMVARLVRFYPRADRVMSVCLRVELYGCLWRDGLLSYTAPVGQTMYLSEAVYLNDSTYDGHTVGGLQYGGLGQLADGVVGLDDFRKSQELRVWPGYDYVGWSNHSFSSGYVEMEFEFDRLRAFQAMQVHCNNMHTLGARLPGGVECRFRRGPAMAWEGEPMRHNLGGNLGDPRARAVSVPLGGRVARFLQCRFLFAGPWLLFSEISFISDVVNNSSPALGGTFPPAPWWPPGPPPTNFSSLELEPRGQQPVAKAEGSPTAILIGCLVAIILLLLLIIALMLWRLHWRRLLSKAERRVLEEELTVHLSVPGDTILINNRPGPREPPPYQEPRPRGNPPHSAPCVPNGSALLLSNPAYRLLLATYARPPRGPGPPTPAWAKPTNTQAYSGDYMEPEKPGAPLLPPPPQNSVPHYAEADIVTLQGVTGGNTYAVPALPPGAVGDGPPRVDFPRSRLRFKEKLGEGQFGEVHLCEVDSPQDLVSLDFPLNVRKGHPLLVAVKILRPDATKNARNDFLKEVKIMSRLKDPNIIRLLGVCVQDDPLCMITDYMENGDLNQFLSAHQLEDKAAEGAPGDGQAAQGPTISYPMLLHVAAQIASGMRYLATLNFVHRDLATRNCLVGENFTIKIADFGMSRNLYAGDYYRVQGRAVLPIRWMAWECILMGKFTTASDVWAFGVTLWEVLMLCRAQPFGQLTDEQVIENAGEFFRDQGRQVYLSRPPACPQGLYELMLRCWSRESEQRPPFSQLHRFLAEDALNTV

[6] = target: Serine/threonine-protein kinase SIK1 (Homo sapiens) (UniProt P57059); assay: Selectivity interaction (KinomeScan (DiscoverX)) EUB0001079a SIK1; conditions: at 1 µM
Serine/threonine-protein kinase SIK1 (Homo sapiens), sequence (P57059 whole entry): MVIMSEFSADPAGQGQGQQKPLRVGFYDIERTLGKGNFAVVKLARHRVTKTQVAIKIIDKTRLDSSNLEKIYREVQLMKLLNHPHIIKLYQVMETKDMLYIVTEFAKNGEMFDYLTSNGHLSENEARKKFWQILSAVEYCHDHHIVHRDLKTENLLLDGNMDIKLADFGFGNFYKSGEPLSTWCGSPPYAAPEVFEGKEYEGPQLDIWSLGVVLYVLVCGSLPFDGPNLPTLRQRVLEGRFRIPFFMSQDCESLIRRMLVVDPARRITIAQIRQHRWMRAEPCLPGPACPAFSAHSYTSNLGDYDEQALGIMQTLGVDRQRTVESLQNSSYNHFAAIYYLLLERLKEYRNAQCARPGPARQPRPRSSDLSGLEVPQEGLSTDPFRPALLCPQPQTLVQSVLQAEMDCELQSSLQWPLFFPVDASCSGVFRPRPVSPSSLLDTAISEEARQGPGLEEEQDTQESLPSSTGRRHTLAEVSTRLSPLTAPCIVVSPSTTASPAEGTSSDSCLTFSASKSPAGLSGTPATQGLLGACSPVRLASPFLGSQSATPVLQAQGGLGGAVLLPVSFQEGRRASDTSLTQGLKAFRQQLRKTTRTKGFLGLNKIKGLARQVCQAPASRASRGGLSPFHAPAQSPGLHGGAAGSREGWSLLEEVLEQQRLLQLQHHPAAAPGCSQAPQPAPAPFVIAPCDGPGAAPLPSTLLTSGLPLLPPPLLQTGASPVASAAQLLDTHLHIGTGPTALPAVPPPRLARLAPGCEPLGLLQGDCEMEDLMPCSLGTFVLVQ

[7] = target: T1, Dual specificity mitogen-activated protein kinase kinase 6 (Homo sapiens) (UniProt P52564); assay: Selectivity interaction (Kinase panel (KiNativ target engagement assay in Jurkat cells)) EUB0001635a MAP2K6; assay type: cell-based; conditions: Selectivity number of off-targets 0.0, Selectivity number of targets 233.0, Source Knowledge https://www.sciencedirect.com/science/article/pii/S2451945619300674?via%3Dihub, at 1 µM
T1 sequence (whole entry): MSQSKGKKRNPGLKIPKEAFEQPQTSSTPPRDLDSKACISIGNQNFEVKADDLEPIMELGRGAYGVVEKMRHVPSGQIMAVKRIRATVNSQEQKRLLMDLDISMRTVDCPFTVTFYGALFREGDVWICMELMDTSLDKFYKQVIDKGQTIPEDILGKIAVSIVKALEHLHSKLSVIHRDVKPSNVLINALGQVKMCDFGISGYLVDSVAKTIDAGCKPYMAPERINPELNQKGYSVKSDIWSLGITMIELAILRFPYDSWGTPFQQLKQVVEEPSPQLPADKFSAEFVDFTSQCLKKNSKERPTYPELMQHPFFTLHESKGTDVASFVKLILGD

[8] = target: D(2) dopamine receptor (Homo sapiens, UniProt P14416); assay: Selectivity interaction (Dopamine D2 receptor assay, human recombinant ) EUB0000877a DRD2
[9] = target: Phosphatidylinositol 4,5-bisphosphate 3-kinase catalytic subunit gamma isoform (Homo sapiens) (UniProt P48736); assay: Selectivity interaction (Kinase panel (Invitrogen)) EUB0000639a PIK3CG; conditions: at 200 nM
[10] = target: T2, Serine/threonine-protein kinase 17B (Homo sapiens) (UniProt O94768); assay: Selectivity interaction (KinomeScan (DiscoverX)) EUB0000607a STK17B; conditions: at 10 µM
T2 sequence (whole entry): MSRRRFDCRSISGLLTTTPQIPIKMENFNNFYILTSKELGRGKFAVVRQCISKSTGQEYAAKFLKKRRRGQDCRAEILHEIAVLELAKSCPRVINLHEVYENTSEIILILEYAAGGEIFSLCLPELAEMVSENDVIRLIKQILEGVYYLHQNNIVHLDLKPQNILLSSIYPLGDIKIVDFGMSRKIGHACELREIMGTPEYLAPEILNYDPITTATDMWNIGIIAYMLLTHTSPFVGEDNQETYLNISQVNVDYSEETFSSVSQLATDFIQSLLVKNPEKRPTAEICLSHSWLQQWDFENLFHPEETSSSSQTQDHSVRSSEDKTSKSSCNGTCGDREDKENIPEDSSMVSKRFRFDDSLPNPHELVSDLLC

[11] = target: STE20-like serine/threonine-protein kinase (Homo sapiens, UniProt Q9H2G2); assay: Selectivity interaction (Ambit KINOMEscan and KiNATiv profiling in Jurkat cells) EUB0000090b SLK; assay type: cell-based; conditions: at 1 µM
STE20-like serine/threonine-protein kinase, sequence (Q9H2G2 whole entry, looked up): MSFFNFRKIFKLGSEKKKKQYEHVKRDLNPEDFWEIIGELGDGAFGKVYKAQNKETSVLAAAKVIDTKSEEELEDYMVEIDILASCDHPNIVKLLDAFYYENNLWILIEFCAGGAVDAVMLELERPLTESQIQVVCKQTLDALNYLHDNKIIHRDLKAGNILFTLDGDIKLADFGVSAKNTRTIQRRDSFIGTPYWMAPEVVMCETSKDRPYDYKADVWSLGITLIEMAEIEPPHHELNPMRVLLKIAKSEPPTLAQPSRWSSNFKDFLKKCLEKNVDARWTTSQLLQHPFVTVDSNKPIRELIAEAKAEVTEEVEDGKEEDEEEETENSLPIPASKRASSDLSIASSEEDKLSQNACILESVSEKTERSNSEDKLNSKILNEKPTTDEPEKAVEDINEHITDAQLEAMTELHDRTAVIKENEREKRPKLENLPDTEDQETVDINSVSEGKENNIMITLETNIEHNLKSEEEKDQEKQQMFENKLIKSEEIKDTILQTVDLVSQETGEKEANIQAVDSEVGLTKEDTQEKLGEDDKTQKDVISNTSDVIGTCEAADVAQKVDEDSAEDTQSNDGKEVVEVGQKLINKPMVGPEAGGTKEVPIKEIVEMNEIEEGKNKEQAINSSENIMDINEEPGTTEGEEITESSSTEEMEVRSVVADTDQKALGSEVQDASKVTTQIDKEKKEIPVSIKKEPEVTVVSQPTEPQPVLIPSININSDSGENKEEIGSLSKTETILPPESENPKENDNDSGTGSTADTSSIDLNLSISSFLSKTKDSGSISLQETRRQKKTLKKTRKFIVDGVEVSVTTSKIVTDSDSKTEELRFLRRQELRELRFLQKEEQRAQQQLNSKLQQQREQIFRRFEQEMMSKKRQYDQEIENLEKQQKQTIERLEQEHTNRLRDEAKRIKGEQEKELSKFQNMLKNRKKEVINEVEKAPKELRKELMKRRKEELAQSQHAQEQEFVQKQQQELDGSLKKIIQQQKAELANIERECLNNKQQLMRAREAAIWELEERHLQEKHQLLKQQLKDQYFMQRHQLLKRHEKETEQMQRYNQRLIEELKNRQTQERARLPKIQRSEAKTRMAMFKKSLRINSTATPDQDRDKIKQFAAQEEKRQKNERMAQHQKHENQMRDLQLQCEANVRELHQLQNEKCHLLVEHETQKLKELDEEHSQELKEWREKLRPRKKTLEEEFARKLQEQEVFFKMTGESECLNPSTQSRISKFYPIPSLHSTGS

[12] = target: T3, N-lysine methyltransferase KMT5A (Homo sapiens) (UniProt Q9NQR1); conditions: at 10 µM
T3 sequence (whole entry): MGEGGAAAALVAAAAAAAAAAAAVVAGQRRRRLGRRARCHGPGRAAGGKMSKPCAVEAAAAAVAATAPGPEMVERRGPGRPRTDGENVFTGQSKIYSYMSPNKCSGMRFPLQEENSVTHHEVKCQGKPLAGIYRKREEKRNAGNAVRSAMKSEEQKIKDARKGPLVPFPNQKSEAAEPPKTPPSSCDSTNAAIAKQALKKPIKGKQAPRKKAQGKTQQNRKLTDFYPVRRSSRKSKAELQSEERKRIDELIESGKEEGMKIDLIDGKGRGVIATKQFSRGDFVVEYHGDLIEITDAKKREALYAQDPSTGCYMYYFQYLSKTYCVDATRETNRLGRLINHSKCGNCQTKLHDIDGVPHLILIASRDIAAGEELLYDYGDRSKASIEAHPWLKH

[13] = target: T4, Mitogen-activated protein kinase kinase kinase 3 (Homo sapiens) (UniProt Q99759); assay: Selectivity interaction (ActivX KiNativ screen (ex vivo kinase selectivity in human PBMCs)) EUB0001619a MAP3K3; assay type: cell-based; conditions: PBMC, at 1 µM
T4 sequence (whole entry): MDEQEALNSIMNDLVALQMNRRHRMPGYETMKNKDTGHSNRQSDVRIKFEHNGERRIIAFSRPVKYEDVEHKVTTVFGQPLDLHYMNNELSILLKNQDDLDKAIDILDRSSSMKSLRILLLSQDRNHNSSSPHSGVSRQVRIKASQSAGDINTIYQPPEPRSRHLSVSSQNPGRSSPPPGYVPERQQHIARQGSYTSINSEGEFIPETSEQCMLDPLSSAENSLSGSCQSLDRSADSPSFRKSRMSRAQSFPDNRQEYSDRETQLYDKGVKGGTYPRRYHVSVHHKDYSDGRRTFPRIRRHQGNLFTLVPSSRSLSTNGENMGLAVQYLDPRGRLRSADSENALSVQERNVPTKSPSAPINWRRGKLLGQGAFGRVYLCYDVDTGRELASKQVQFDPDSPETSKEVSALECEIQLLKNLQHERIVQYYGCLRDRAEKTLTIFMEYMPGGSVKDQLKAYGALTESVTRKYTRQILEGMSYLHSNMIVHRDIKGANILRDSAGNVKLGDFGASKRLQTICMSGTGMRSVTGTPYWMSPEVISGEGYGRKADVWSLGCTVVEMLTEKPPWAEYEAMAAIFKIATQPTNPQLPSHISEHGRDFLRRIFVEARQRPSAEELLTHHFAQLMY

Compound: CC(C)(O)[C@H](F)CN1Cc2cc(NC(=O)c3cnn4cccnc34)c(N3CCOCC3)cc2C1=O
- % of inhibition [1]: 80.5%

Compound: COc1cc(N(C)c2ccnc3ccc(C(F)(F)F)cc23)cc(OC)c1OC
- % binding [2]: 81%

Compound: CCC(=O)N1CCN(c2ccc(-n3c(=O)ccc4cnc5ccc(-c6cnc7ccccc7c6)cc5c43)cc2C(F)(F)F)CC1
- % of control [3]: 50%

Compound: CN(C)CCOc1ccc(-c2nc(-c3ccncc3)c(-c3ccc4c(c3)CC/C4=N\O)[nH]2)cc1
- % of control [4]: 73%
- % of control [5]: 43%

Compound: Nc1cnc(N2CCc3cc(S(=O)(=O)Nc4c(F)cc(Cl)cc4F)cc(N4CCCC4=O)c32)nc1 [TP-020n]
- % of control [6]: 100%

Compound: C=CC(=O)Nc1ccc(C(=O)Nc2[nH]nc3c2CN(C(=O)N[C@H](CN(C)C)c2ccccc2)C3(C)C)cc1
- % of engagement [7]: -2.9%

Compound: CCC(=O)N1CC[C@H](Nc2ncnc3c2CN(c2cnc(OC)c(C(F)(F)F)c2)CC3)C1 [LENIOLISIB]
- IC50 [8]: > 30 µM

Compound: CC[C@@H]1[C@H](F)C(=O)N[C@@H]1COc1nccc2cc(C(N)=O)c(OC)cc12 [ZIMLOVISERTIB]
- % of inhibition [9]: 6.49%

Compound: CNC(=O)Nc1ccc(-c2nc(N3CC4CCC(C3)O4)c3cnn(C4CCC5(CC4)OCCO5)c3n2)cc1
- % of control [10]: 100%

Compound: CN(C)C/C=C/C(=O)Nc1ccc(C(=O)N2CCCC(Nc3ncc(Cl)c(-c4c[nH]c5ccccc45)n3)C2)cc1 (stereo not drawn)
- % of control [11]: 70%

Compound: CNCCN1CCC(c2cc(CN(C)C(=O)c3cccc(Oc4ccccc4)c3)ccn2)CC1
- % activity [12]: > 90%

Compound: N#Cc1cccc(-c2c[nH]c3ncnc(N4CCOCC4)c23)c1
- % of inhibition [13]: 7%
